The source made the active and inactive calls. No cut-off for these calls is given here.

This passage reports IC50, Activity and inhibition results from ChEMBL document CHEMBL1268921, “New pyridazinone derivatives with vasorelaxant and platelet antiaggregatory activities” (Bioorg Med Chem Lett, 2010).

Experiment [1] is described as follows: Antiplatelet activity against human platelet assessed as inhibition of collagen-induced platelet aggregation. In kind it is functional, cell-based.
The next experiment has as its system Platelet. The experiment in a line: Antiplatelet activity against human platelet assessed as inhibition of thrombin-induced platelet aggregation at <100 uM. The experiment is classed as functional, cell-based.
A further experiment deals with Aorta. The experiment in a line: Vasorelaxant activity against noradrenaline-induced contraction in intact rat aortic rings. The experiment is classed as functional, tissue-based.
The target in experiment [2] is Prostaglandin G/H synthase 1 (Homo sapiens) (UniProt P23219). Nature of the experiment: Inhibition of COX1.
Chain of Prostaglandin G/H synthase 1 (Homo sapiens) (P23219 whole entry): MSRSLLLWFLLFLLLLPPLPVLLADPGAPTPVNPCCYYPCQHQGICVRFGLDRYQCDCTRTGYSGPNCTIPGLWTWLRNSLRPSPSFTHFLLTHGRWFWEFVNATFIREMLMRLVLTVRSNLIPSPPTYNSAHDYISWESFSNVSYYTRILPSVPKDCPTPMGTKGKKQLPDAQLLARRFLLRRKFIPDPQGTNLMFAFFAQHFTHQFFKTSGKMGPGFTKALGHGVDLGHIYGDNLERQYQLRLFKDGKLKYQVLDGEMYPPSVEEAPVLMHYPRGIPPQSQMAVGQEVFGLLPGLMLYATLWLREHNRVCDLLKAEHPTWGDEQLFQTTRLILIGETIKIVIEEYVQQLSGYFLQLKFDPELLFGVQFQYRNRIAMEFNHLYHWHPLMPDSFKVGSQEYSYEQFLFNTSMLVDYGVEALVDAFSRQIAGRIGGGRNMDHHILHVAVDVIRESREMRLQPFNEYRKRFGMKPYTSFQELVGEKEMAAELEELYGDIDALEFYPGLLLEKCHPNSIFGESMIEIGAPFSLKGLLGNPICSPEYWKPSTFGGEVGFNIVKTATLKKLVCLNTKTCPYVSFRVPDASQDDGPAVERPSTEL

One may read the IC50 as the point on the concentration scale where inhibition reaches its midpoint. For the compound `O=c1ccc(CCO)n[nH]1`, the values for the IC50 (in experiment [1]; in the experiment with Aorta) were 64.3 µM and more than 100 µM, respectively. The result with Platelet was Active.

As for `Cn1nc(CO)ccc1=O`, the concentration for half-maximal inhibition (IC50) was 69.6 µM in experiment [1] and more than 100 µM in the experiment with Aorta. Besides, in the experiment with Platelet, the outcome was Active.

As for `O=c1ccc(CCOCc2ccccc2)nn1Cc1ccccc1`, the concentration for half-maximal inhibition (IC50) in experiment [1] was 4.11 µM; in the experiment on Aorta, 32.3 µM. Moreover, the outcome in the experiment on Platelet was Active.

As to `Cc1[nH]c(=O)c(C#N)cc1-c1ccncc1` [MILRINONE], the IC50 is 38.5 µM in experiment [1] and 0.122 µM in the experiment with Aorta.

In the case of `O=c1ccc(CCCOCc2ccccc2)nn1Cc1ccccc1`, the IC50 in experiment [1] is 5.9 µM; with Aorta, 32.5 µM. Moreover, in the experiment with Platelet, the result was Active.

Regarding `CC(C)(C)[Si](OCc1ccc(=O)n(Cc2ccccc2)n1)(c1ccccc1)c1ccccc1`, the concentration for half-maximal inhibition (IC50) in experiment [1] was 4.6 µM; in the experiment with Aorta, more than 100 µM. For the same compound, the outcome in the experiment with Platelet was Active.

For `Cn1nc(CCCO)ccc1=O`, the half-maximal inhibitory concentration (IC50) (in experiment [1]; in the experiment with Aorta) was more than 100 µM each time. In addition, the result with Platelet was Active.

Turning to `O=c1ccc(COCc2ccccc2)nn1Cc1ccccc1`, the concentration for half-maximal inhibition (IC50) in experiment [1] was 8 µM; with Aorta, 35.3 µM. Moreover, the outcome in the experiment on Platelet was Active.

As for `Cn1nc(CCO)ccc1=O`, the IC50 in experiment [1] was 60.4 µM; in the experiment on Aorta, more than 100 µM. For the same compound, the result in the experiment with Platelet was Active.

For `Cn1nc(CCCOCc2ccccc2)ccc1=O`, the concentration for half-maximal inhibition (IC50) in experiment [1] is 50.7 µM; with Aorta, 76.4 µM. Further, in the experiment with Platelet, the outcome was Active.

On to `CC(C)(C)[Si](OCCCc1ccc(=O)n(Cc2ccccc2)n1)(c1ccccc1)c1ccccc1`, for which the IC50 came to 3.9 µM in experiment [1] and 39.9 µM with Aorta. Moreover, the outcome in the experiment on Platelet was Active.

As for `CC(C)(C)[Si](OCCc1ccc(=O)n(Cc2ccccc2)n1)(c1ccccc1)c1ccccc1`, the half-maximal inhibitory concentration (IC50) in experiment [1] is 4.8 µM; in the experiment with Aorta it was more than 100 µM. Besides, the outcome in the experiment on Platelet was Active.

`O=c1ccc(CCCO)n[nH]1`: the IC50 (in experiment [1]; with Aorta) was more than 100 µM each time. Also, the outcome in the experiment with Platelet was Active.

As to `CC(C)(C)[Si](OCCc1ccc(=O)[nH]n1)(c1ccccc1)c1ccccc1`, the IC50 in experiment [1] is 3.87 µM; in the experiment on Aorta, 56.2 µM. Further, the outcome in the experiment on Platelet was Active.

As for `O=c1ccc(CO)nn1Cc1ccccc1`, the 50% inhibitory concentration (IC50) (in experiment [1]; in the experiment on Aorta) was more than 100 µM each time. In the experiment on Platelet, the outcome was Active.

As for `Cn1nc(CCO[Si](c2ccccc2)(c2ccccc2)C(C)(C)C)ccc1=O`, the results for the IC50 (in experiment [1]; with Aorta) were 3.17 µM and 47 µM, respectively. Also, in experiment [2], the inhibition entry is “Active”. Besides, the outcome in the experiment on Platelet was Active.

With `O=c1ccc(CCO)nn1Cc1ccccc1`, the IC50 (in experiment [1]; in the experiment on Aorta) was more than 100 µM throughout. Further, in the experiment on Platelet, the result was Active.

For `CC(C)(C)[Si](OCCCc1ccc(=O)[nH]n1)(c1ccccc1)c1ccccc1`, the values for the IC50 (in experiment [1]; in the experiment with Aorta) were 2.13 µM and 78.2 µM, respectively. Further, the result with Platelet was Active.

`CC(C)(C)[Si](OCc1ccc(=O)[nH]n1)(c1ccccc1)c1ccccc1`: the IC50 in experiment [1] is 1.8 µM; with Aorta it was 62.6 µM. Moreover, the outcome in the experiment with Platelet was Active.

On to `O=c1ccc(CO)n[nH]1`, for which the half-maximal inhibitory concentration (IC50) (in experiment [1]; with Aorta) was more than 100 µM throughout. Also, in the experiment with Platelet, the outcome was Active.

Turning to `Cn1nc(CCOCc2ccccc2)ccc1=O`, the IC50 (in experiment [1]; with Aorta) was more than 100 µM throughout. Besides, in the experiment with Platelet, the result was Active.

On to `Cn1nc(CCCO[Si](c2ccccc2)(c2ccccc2)C(C)(C)C)ccc1=O`, for which the concentration for half-maximal inhibition (IC50) was 2.34 µM in experiment [1] and more than 100 µM in the experiment with Aorta. In addition, in the experiment with Platelet, the result was Active.

Consider `O=c1ccc(CCCO)nn1Cc1ccccc1`, for which the IC50 is 4.7 µM in experiment [1] and more than 100 µM with Aorta. For the same compound, the result with Platelet was Active.

On to `Cn1nc(COCc2ccccc2)ccc1=O`, for which the concentration for half-maximal inhibition (IC50) (in experiment [1]; in the experiment with Aorta) was more than 100 µM each time. The outcome in the experiment with Platelet was Active.

On to `Cn1nc(CO[Si](c2ccccc2)(c2ccccc2)C(C)(C)C)ccc1=O`, for which the IC50 in experiment [1] was found to be 4.55 µM; in the experiment with Aorta, 58.4 µM. The outcome in the experiment with Platelet was Active.
